In patent US20180153995A1, “USE OF ANTIMICROBIAL POLYMERS FOR RE-SENSITIZATION OF MICROORGANISMS UPON EMERGENCE OF RESISTANCE TO ANTI-MICROBIAL AGENTS” (Technion Research & Development Foundation Limited, priority 2008, published 2018):
Where two headings read alike, the source gives them in different places.

Experiments:
S. aureus 43300 = test: Antibiotic MIC by microdilution with or without sub-MIC polymer; assay type: cell-based, Staphylococcus aureus
Method: (§1) MICs were determined by microdilution susceptibility testing in 96-well plates (by Nunc) using inocula of 10^5 bacteria per ml. Cell populations were evaluated by optical density measurements at 620 nm and were calibrated against a set of standards. Hundred (100) μl of a bacterial suspension were added to 100 μl of culture medium (control) or to 100 μl of culture medium containing various polymer concentrations in 2-fold serial dilutions. Inhibition of proliferation was determined by optical density measurements at 620 nm after an incubation period of 24 hours at 37° C.
Table 8 below presents the MIC values of antibiotics in presence or absence of C12(5-ene)KKNC12KNH2 (SEQ ID NO: 2) at sub-MIC levels of the polymer, as measured for the S. aureus strains 43300 (ATCC), 15819 (clinical isolate), 15877 (clinical isolate) and 15852 (clinical isolate). MICs were determined by microdilution susceptibility testing in 96-well plates (Nunc) using inocula of 10^5 bacteria per ml. One hundred (100) μl of a bacterial suspension were added to 100 μl of culture medium (control) or to 100 μl of culture medium containing various antibiotic and C12(5-ene)KKNC12KNH2 (SEQ ID NO: 2) concentrations in 2-fold serial dilutions. Inhibition of proliferation was determined by optical density measurements at 620 nm after an incubation period of 24 hours at 37° C.
(§2) 100 μl of a bacterial suspension were added to 100 μl of culture medium (control) or to 100 μl of culture medium containing various antibiotic and C14(9-ene)KKNC12KNH2 (SEQ ID NO: 5) concentrations in 2-fold serial dilutions. Inhibition of proliferation was determined by optical density measurements at 620 nm after an incubation period of 24 hours at 37° C.

[1] = tested on: E. coli K-12 resistant wild type; assay type: cell-based, Escherichia coli; details: E. coli AG100 (w.t.)
MRSA 15903 = test: microbe, parasite or virus in culture; assay type: cell-based, Staphylococcus aureus
Procedure, shortened: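 Two-agent combinations tested against MRSA 15903; FIC index = A/MICA + B/MICB, using MICs in combination versus alone. Below 0.5 read as clear re-sensitizing, 0.5–4 marginal or null, above 4 antagonism.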

E. coli 14182 = test: Antibiotic MIC by microdilution with or without sub-MIC polymer; assay type: cell-based, Escherichia coli; details: polymer at ½ of its MIC
S. aureus 15819 = test: as above; assay type: cell-based, Staphylococcus aureus; details: S. aureus 15819
[2] = tested on: E. coli K-12 efflux knockout mutant; assay type: cell-based, Escherichia coli; details: E. coli AG100A (efflux−)
Method: as §1

E. coli 16327 = test: microbe, parasite or virus in culture; details: for Antibiotic MIC: E. coli 16327
Method: as §1, §2

S. maltophila 748 = test: Antibiotic MIC by microdilution with or without sub-MIC polymer; assay type: cell-based, Stenotrophomonas maltophila
S. aureus 17314 = test: as above; assay type: cell-based, Staphylococcus aureus; details: S. aureus 17314; +½ MIC (3.12 μM) C16(9-ene)KKNC12KNH2
[3] = +¼ MIC (1.6 μM) C14(9-ene)KKNC12KNH2
[4] = +½ MIC (3.12 μM) C14(9-ene)KKNC12KNH2
[5] = +⅓ MIC (2.1 μM) C14(9-ene)KKNC12KNH2
[6] = polymer at ¼ of its MIC (Table 16)
[7] = polymer at ½ of its MIC (Table 16)
[8] = polymer at ⅓ of its MIC (Table 16)
[9] = the OAK at ¼ of its MIC (Table 17)
[10] = the OAK at ½ of its MIC (Table 17)
[11] = the OAK at ⅓ of its MIC (Table 17)
[12] = +¼ MIC (1.6 μM) C12K(KNC12K)3NH2
[13] = +½ MIC (3.12 μM) C12K(KNC12K)3NH2
[14] = +⅓ MIC (2.1 μM) C12K(KNC12K)3NH2

gentamicin
Antibiotic MIC (S. aureus 43300; [3]): 64 to 128 µg/mL | Antibiotic MIC (S. aureus 43300; [4]): 64 to 128 µg/mL | Antibiotic MIC (S. aureus 43300; [5]): 64 to 128 µg/mL | Antibiotic MIC (S. aureus 43300; no polymer (None), Table 9): 64 to 128 µg/mL | Antibiotic MIC (S. aureus 43300; no polymer (None), Table 10): 64 µg/mL | Antibiotic MIC, None ([1]; antibiotic alone (Table 16)): 4 to 8 µg/mL | Antibiotic MIC, None ([1]; antibiotic alone (Table 17)): 4 to 8 µg/mL | Antibiotic MIC in presence of C12K(NC8K)7NH2 (SEQ ID NO: 4), +¼ MIC [1, 6]: 4 µg/mL | Antibiotic MIC in presence of C12K(NC8K)7NH2 (SEQ ID NO: 4), +½ MIC [1, 7]: 2 µg/mL | Antibiotic MIC in presence of C12K(NC8K)7NH2 (SEQ ID NO: 4), +⅓ MIC [1, 8]: 4 µg/mL | Antibiotic MIC in presence of the OAK, +¼ MIC [1, 9]: 4 µg/mL | Antibiotic MIC in presence of the OAK, +½ MIC [1, 10]: 4 µg/mL | Antibiotic MIC in presence of the OAK, +⅓ MIC [1, 11]: 4 µg/mL | MIC (MRSA 15903; MRSA 15903, +¼ polymer MIC (1.6 μM) NC12(KNC12K)2NH2): 128 µg/mL | MIC (MRSA 15903; MRSA 15903, +½ polymer MIC (3.1 μM) NC12(KNC12K)2NH2): 128 µg/mL | MIC (MRSA 15903; MRSA 15903, +⅓ polymer MIC (2.1 μM) NC12(KNC12K)2NH2): 128 µg/mL | MIC (MRSA 15903; S. aureus CI-15903, +polymer (½ MIC) C12(5-ene)KKNC12KNH2): 128 µg/mL | MIC (MRSA 15903; S. aureus CI-15903, +polymer (⅓ MIC) C12(5-ene)KKNC12KNH2): 128 µg/mL | Antibiotic MIC in presence of C12K(NC8K)7NH2 (SEQ ID NO: 4), +½ MIC (E. coli 14182): 64 to 128 µg/mL | Antibiotic MIC (S. aureus 15819; +¼ MIC (1.6 μM) C12(5-ene)KKNC12KNH2): 1 µg/mL | Antibiotic MIC (S. aureus 15819; [12]): 1 µg/mL | Antibiotic MIC (S. aureus 15819; +¼ MIC (1.6 μM) C12KKNC12KNH2): 1 µg/mL | Antibiotic MIC (S. aureus 15819; +½ MIC (3.12 μM) C12(5-ene)KKNC12KNH2): 1 µg/mL | Antibiotic MIC (S. aureus 15819; [13]): 0.5 µg/mL | Antibiotic MIC (S. aureus 15819; +½ MIC (3.12 μM) C12KKNC12KNH2): 1 µg/mL | Antibiotic MIC (S. aureus 15819; +⅓ MIC (2.1 μM) C12(5-ene)KKNC12KNH2): 1 µg/mL | Antibiotic MIC (S. aureus 15819; [14]): 1 µg/mL | Antibiotic MIC (S. aureus 15819; +⅓ MIC (2.1 μM) C12KKNC12KNH2): 1 µg/mL | Antibiotic MIC (S. aureus 15819; no polymer (None), Table 8): 1 µg/mL | Antibiotic MIC (S. aureus 15819; no polymer (None), Table 11): 1 µg/mL | Antibiotic MIC (S. aureus 15819; no polymer (None), Table 13): 1 µg/mL | Antibiotic MIC, None ([2]; antibiotic alone (Table 16)): 4 to 8 µg/mL | Antibiotic MIC, None ([2]; antibiotic alone (Table 17)): 4 to 8 µg/mL | Antibiotic MIC in presence of C12K(NC8K)7NH2 (SEQ ID NO: 4), +¼ MIC [2, 6]: 4 µg/mL | Antibiotic MIC in presence of C12K(NC8K)7NH2 (SEQ ID NO: 4), +½ MIC [2, 7]: 2 to 4 µg/mL | Antibiotic MIC in presence of C12K(NC8K)7NH2 (SEQ ID NO: 4), +⅓ MIC [2, 8]: 4 µg/mL | Antibiotic MIC in presence of the OAK, +¼ MIC [2, 9]: 4 µg/mL | Antibiotic MIC in presence of the OAK, +½ MIC [2, 10]: 4 µg/mL | Antibiotic MIC in presence of the OAK, +⅓ MIC [2, 11]: 4 µg/mL | Antibiotic MIC (E. coli 16327; +¼ MIC (1.6 μM) C12K(KNC12K)2NH2): 8 µg/mL | Antibiotic MIC (E. coli 16327; [3]): 4 µg/mL | Antibiotic MIC (E. coli 16327; +¼ MIC (1.6 μM) C16(9-ene)KKNC12KNH2): 4 µg/mL | Antibiotic MIC (E. coli 16327; +½ MIC (3.12 μM) C12K(KNC12K)2NH2): 4 µg/mL | Antibiotic MIC (E. coli 16327; [4]): 2 µg/mL | Antibiotic MIC (E. coli 16327; +½ MIC (3.12 μM) C16(9-ene)KKNC12KNH2): 4 µg/mL | Antibiotic MIC (E. coli 16327; +⅓ MIC (2.1 μM) C12K(KNC12K)2NH2): 8 µg/mL | Antibiotic MIC (E. coli 16327; [5]): 4 µg/mL | Antibiotic MIC (E. coli 16327; +⅓ MIC (2.1 μM) C16(9-ene)KKNC12KNH2): 4 µg/mL | Antibiotic MIC (E. coli 16327; no polymer (None), Table 9): 4 µg/mL | Antibiotic MIC (E. coli 16327; no polymer (None), Table 10): 4 µg/mL | Antibiotic MIC (E. coli 16327; no polymer (None), Table 12): 8 µg/mL | MIC, Alone (E. coli 16327; E. coli U16327, antibiotic alone (Table 22)): 4 µg/mL | MIC, ¼ + MIC OAK (E. coli 16327; E. coli U16327, with C12K(KNC10K)3NH2 (SEQ ID NO: 10) at ¼ of its MIC): 4 µg/mL | MIC, ½ + MIC OAK (E. coli 16327; E. coli U16327, with C12K(KNC10K)3NH2 (SEQ ID NO: 10) at ½ of its MIC): 2 to 4 µg/mL | MIC, ⅓ + MIC OAK (E. coli 16327; E. coli U16327, with C12K(KNC10K)3NH2 (SEQ ID NO: 10) at ⅓ of its MIC): 4 µg/mL | Antibiotic MIC, None (E. coli 16327; E. coli U-16327, antibiotic alone (Table 15)): 4 µg/mL | Antibiotic MIC in presence of C12K(NC8K)7NH2 (SEQ ID NO: 4), +¼ MIC (E. coli 16327; E. coli U-16327, polymer at ¼ of its MIC): 4 µg/mL | Antibiotic MIC in presence of C12K(NC8K)7NH2 (SEQ ID NO: 4), +½ MIC (E. coli 16327; E. coli U-16327, polymer at ½ of its MIC): 1 to 2 µg/mL | Antibiotic MIC in presence of C12K(NC8K)7NH2 (SEQ ID NO: 4), +⅓ MIC (E. coli 16327; E. coli U-16327, polymer at ⅓ of its MIC): 2 µg/mL | Antibiotic MIC (S. maltophila 748; [12]): 16 µg/mL | Antibiotic MIC (S. maltophila 748; [13]): 8 µg/mL | Antibiotic MIC (S. maltophila 748; [14]): 16 µg/mL | Antibiotic MIC (S. maltophila 748; no polymer (None), Table 13): 16 µg/mL | Antibiotic MIC (S. aureus 17314): 64 µg/mL
